Experimental data reported in article PMC12454493, “Insight on novel sulfamoylphenyl pyrazole derivatives as anticancer carbonic anhydrase inhibitors” (Molecular Diversity, 2024).

Experiments:
Type in all cases: cell-based
SK-MEL-2 = assay: NCI-60 one-dose SRB screen (Melanoma); settings: Homo sapiens, single dose 10 µM, 48 h, read-out: Growth inhibition percent (GI %)
Method: (§1) The National Cancer Institute (NCI) Developmental Therapeutic Program (www.dtp.nci.nih.gov) selected the 20 novel synthesized compounds 4a-e, 5a-e, 6a-c, 9a-e, 10 and 11 to test for their anticancer activity at a single dose of 10 µM using SRB assay. […] Supplementary Data S3; Table S1 presents the detailed screening results of the most promising compounds. The preliminary screening’s detailed results for the remaining compounds are elucidated in the (Supplementary Data S3; Table S2).
(§2) The guidelines of the Drug Evaluation Branch’s protocol at the NCI in Bethesda served as the basis for the in vitro anticancer screening assays. at one dose 10 µM against a panel of 60 cancer cell lines. The human tumor cell lines used belonged to nine panels: leukemia, melanoma, lung, colon, CNS, ovarian, renal, prostate and breast cancers using the sulforhodamine B (SRB) assay in a 48 h drug exposure protocol.

UACC-62 = assay: NCI-60 one-dose SRB screen (Melanoma); settings: Homo sapiens, single dose 10 µM, 48 h, read-out: Growth inhibition percent (GI %)
Method: as §1, §2

SK-MEL-28 = assay: NCI-60 one-dose SRB screen (Melanoma); settings: Homo sapiens, single dose 10 µM, 48 h, read-out: Growth inhibition percent (GI %)
Method: as §1, §2

SK-MEL-5 = assay: NCI-60 one-dose SRB screen (Melanoma); settings: Homo sapiens, single dose 10 µM, 48 h, read-out: Growth inhibition percent (GI %)
Method: as §1, §2

M14 = assay: NCI-60 one-dose SRB screen (Melanoma); settings: Homo sapiens, single dose 10 µM, 48 h, read-out: Growth inhibition percent (GI %)
Method: as §1, §2

LOX IMVI = assay: NCI-60 one-dose SRB screen (Melanoma); settings: Homo sapiens, single dose 10 µM, 48 h, read-out: Growth inhibition percent (GI %)
Method: as §1, §2

UACC-257 = assay: NCI-60 one-dose SRB screen (Melanoma); settings: Homo sapiens, single dose 10 µM, 48 h, read-out: Growth inhibition percent (GI %)
Method: as §1, §2

MDA-MB-435 = assay: NCI-60 one-dose SRB screen (Melanoma); settings: Homo sapiens, single dose 10 µM, 48 h, read-out: Growth inhibition percent (GI %)
Method: as §1, §2

MALME-3M = assay: NCI-60 one-dose SRB screen (Melanoma); settings: Homo sapiens, single dose 10 µM, 48 h, read-out: Growth inhibition percent (GI %)
Method: as §1, §2

RPMI-8226 = assay: NCI-60 one-dose SRB screen (Leukemia); settings: Homo sapiens, single dose 10 µM, 48 h, read-out: Growth inhibition percent (GI %)
Method: as §1, §2

HL-60(TB) = assay: NCI-60 one-dose SRB screen (Leukemia); settings: Homo sapiens, single dose 10 µM, 48 h, read-out: Growth inhibition percent (GI %)
Method: as §1, §2

CCRF-CEM = assay: NCI-60 one-dose SRB screen (Leukemia); settings: Homo sapiens, single dose 10 µM, 48 h, read-out: Growth inhibition percent (GI %)
Method: as §1, §2

K-562 = assay: NCI-60 one-dose SRB screen (Leukemia); settings: Homo sapiens, K562, single dose 10 µM, 48 h, read-out: Growth inhibition percent (GI %)
Method: as §1, §2

MOLT-4 = assay: NCI-60 one-dose SRB screen (Leukemia); settings: Homo sapiens, single dose 10 µM, 48 h, read-out: Growth inhibition percent (GI %)
Method: as §1, §2

SR = assay: NCI-60 one-dose SRB screen (Leukemia); settings: Homo sapiens, single dose 10 µM, 48 h, read-out: Growth inhibition percent (GI %)
Method: as §1, §2

OVCAR-3 = assay: NCI-60 one-dose SRB screen (Ovarian cancer); settings: Homo sapiens, single dose 10 µM, 48 h, read-out: Growth inhibition percent (GI %)
Method: as §1, §2

NCI/ADR-RES = assay: NCI-60 one-dose SRB screen (Ovarian cancer); settings: Homo sapiens, single dose 10 µM, 48 h, read-out: Growth inhibition percent (GI %)
Method: as §1, §2

SK-OV-3 = assay: NCI-60 one-dose SRB screen (Ovarian cancer); settings: Homo sapiens, single dose 10 µM, 48 h, read-out: Growth inhibition percent (GI %)
Method: as §1, §2

OVCAR-5 = assay: NCI-60 one-dose SRB screen (Ovarian cancer); settings: Homo sapiens, single dose 10 µM, 48 h, read-out: Growth inhibition percent (GI %)
Method: as §1, §2

OVCAR-4 = assay: NCI-60 one-dose SRB screen (Ovarian cancer); settings: Homo sapiens, single dose 10 µM, 48 h, read-out: Growth inhibition percent (GI %)
Method: as §1, §2

IGROV1 = assay: NCI-60 one-dose SRB screen (Ovarian cancer); settings: Homo sapiens, IGROV-1, single dose 10 µM, 48 h, read-out: Growth inhibition percent (GI %)
Method: as §1, §2

OVCAR-8 = assay: NCI-60 one-dose SRB screen (Ovarian cancer); settings: Homo sapiens, single dose 10 µM, 48 h, read-out: Growth inhibition percent (GI %)
Method: as §1, §2

MDA-MB-231/ATCC = assay: NCI-60 one-dose SRB screen (Breast Cancer); settings: Homo sapiens, single dose 10 µM, 48 h, read-out: Growth inhibition percent (GI %)
Method: as §1, §2

T-47D = assay: NCI-60 one-dose SRB screen (Breast Cancer); settings: Homo sapiens, T47D, single dose 10 µM, 48 h, read-out: Growth inhibition percent (GI %)
Method: as §1, §2

HS 578T = assay: NCI-60 one-dose SRB screen (Breast Cancer); settings: Homo sapiens, single dose 10 µM, 48 h, read-out: Growth inhibition percent (GI %)
Method: as §1, §2

MCF-7 = assay: NCI-60 one-dose SRB screen (Breast Cancer); settings: Homo sapiens, MCF7, single dose 10 µM, 48 h, read-out: Growth inhibition percent (GI %)
Method: as §1, §2

BT-549 = assay: NCI-60 one-dose SRB screen (Breast Cancer); settings: Homo sapiens, single dose 10 µM, 48 h, read-out: Growth inhibition percent (GI %)
Method: as §1, §2

MDA-MB-468 = assay: NCI-60 one-dose SRB screen (Breast Cancer); settings: Homo sapiens, single dose 10 µM, 48 h, read-out: Growth inhibition percent (GI %)
Method: as §1, §2

DU-145 = assay: NCI-60 one-dose SRB screen (Prostate Cancer); settings: Homo sapiens, single dose 10 µM, 48 h, read-out: Growth inhibition percent (GI %)
Method: as §1, §2

PC-3 = assay: NCI-60 one-dose SRB screen (Prostate Cancer); settings: Homo sapiens, single dose 10 µM, 48 h, read-out: Growth inhibition percent (GI %)
Method: as §1, §2

Cc1ccc(-c2nn(-c3ccc(S(N)(=O)=O)cc3)cc2C(=O)OCC(=O)Nc2ccc(S(N)(=O)=O)cc2)cc1 [Compound 4b, 2-Oxo-2-[(4-sulfamoylphenyl)amino] ethyl 1-(4-sulfamoylphenyl)-3-(p-tolyl)-1H-pyrazole-4-carboxylate]
inhibition at 10 µM (SK-MEL-2): 8.94%
inhibition at 10 µM (UACC-62): < 5%
inhibition at 10 µM (SK-MEL-28): < 5%
inhibition at 10 µM (SK-MEL-5): < 5%
inhibition at 10 µM (M14): < 5%
inhibition at 10 µM (LOX IMVI): < 5%
inhibition at 10 µM (UACC-257): 5.42%
inhibition at 10 µM (MDA-MB-435): < 5%
inhibition at 10 µM (MALME-3M): < 5%
inhibition at 10 µM (RPMI-8226): < 5%
inhibition at 10 µM (HL-60(TB)): 5.09%
inhibition at 10 µM (CCRF-CEM): < 5%
inhibition at 10 µM (K-562): 7.16%
inhibition at 10 µM (MOLT-4): < 5%
inhibition at 10 µM (SR): 30.2%
inhibition at 10 µM (OVCAR-3): < 5%
inhibition at 10 µM (NCI/ADR-RES): < 5%
inhibition at 10 µM (SK-OV-3): < 5%
inhibition at 10 µM (OVCAR-5): 5.99%
inhibition at 10 µM (OVCAR-4): < 5%
inhibition at 10 µM (IGROV1): < 5%
inhibition at 10 µM (OVCAR-8): < 5%
inhibition at 10 µM (MDA-MB-231/ATCC): 6.64%
inhibition at 10 µM (T-47D): 17.5%
inhibition at 10 µM (HS 578T): 6.42%
inhibition at 10 µM (MCF-7): < 5%
inhibition at 10 µM (BT-549): 6.7%
inhibition at 10 µM (MDA-MB-468): 18.6%
inhibition at 10 µM (DU-145): < 5%
inhibition at 10 µM (PC-3): < 5%
